In US12428427B2, “Methods and compositions for targeting PD-L1” (Aligos Therapeutics, Inc., priority 2021, dated 2025):

Experiments:
PDL1/PD1 = PDL1/PD1 (Homo sapiens, UniProt Q9NZQ7); assay: PDL1/PD1 Binding Assay; details: PDL1-6×His 0.3 nM, PD1-Fc-Avi-Biotin 2.5 nM, Acceptor/Donor beads; read-out: PD-1/PD-L1 PPI IC50
Description: Compounds to be tested were serially diluted in DMSO, and further diluted in assay buffer (25 mM Hepes pH 7.4, 150 mM NaCl, 0.005% Tween 20, BSA 0.01%). Diluted compounds were added to the wells with final concentration of DMSO at 1%. PDL1-6×His protein was added to the wells, mixed well with compound. The plates were incubated for 30 min at room temperature. PD1-Fc-Avi-Biotin protein was added to the wells. Final concentration of PDL1 and PD1 protein is 0.3 nM and 2.5 nM, respectively. After a binding time of 30 min at room temperature, Anti-6×His Acceptor beads (final concentration 20 ug/ml) were added to the wells, and the incubation continued for 1 h. Streptavidin Donor beads (final concentration 20 ug/mL) were added at reduced light. The plates were sealed with foil and incubated in the dark for additional 1 h or overnight before reading on an Envision reader. The IC50 values were determined by fitting the curves using a four-parameter equation in Graphpad Prism 8.

PD-1/PD-L1 interaction = target: T1, PD-1/PD-L1 interaction (Homo sapiens, UniProt Q9NZQ7); assay: PD-1/PD-L1 NFAT Reporter Assay; type: cell-based; details: co-culture of PD-L1 expressing CHO cells and PD-1 overexpressing Jurkat cells, 6 hrs, NFAT luciferase
T1 construct: expressed in transfected cells; Jurkat cells (PD-1 plus NFAT-luciferase)
T1 sequence (Q9NZQ7 19-290): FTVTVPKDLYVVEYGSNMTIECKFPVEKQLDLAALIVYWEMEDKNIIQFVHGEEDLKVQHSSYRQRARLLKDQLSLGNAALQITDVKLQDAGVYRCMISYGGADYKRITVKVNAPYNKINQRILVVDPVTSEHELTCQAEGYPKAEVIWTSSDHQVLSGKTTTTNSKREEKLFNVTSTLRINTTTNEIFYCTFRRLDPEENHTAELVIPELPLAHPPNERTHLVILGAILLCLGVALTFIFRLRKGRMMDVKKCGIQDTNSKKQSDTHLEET
Description: Blocking the PD-1/PD-L1 interaction will release the inhibitory signal and results in TCR signaling and NFAT-mediated luciferase activity.
CHO cells expressing surface-bound anti-CD3 antibodies and PD-L1 were first seeded overnight and treated with the compounds. Jurkat cells overexpressing PD-1 and a luciferase construct under NFAT promoter were then immediately seeded on the monolayer of CHO cells. The co-culture was then incubated for 6 hrs at 37° C. Luciferase activity was assessed by adding the ONE-Glo reagent and measuring luminescence with a plate reader. EC50 values were determined from the fit of the dose-response curves.

Sequence of PDL1/PD1 (Q9NZQ7 19-238 limits assumed): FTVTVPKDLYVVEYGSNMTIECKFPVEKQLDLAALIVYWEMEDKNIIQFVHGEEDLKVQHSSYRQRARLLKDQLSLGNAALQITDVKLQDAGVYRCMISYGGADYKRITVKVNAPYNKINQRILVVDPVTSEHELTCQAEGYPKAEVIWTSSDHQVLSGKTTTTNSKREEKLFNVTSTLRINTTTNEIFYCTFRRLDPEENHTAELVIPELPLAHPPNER

| Compound | IC50 (PDL1/PD1) [nM] | EC50 (PD-1/PD-L1 interaction) [nM] |
| --- | --- | --- |
| COc1nc(-c2cccc(-c3cccc(NC(=O)c4ccnn(C)c4=O)c3Cl)c2Cl)cnc1CNC[C@@H]1CCC(=O)N1 [Compound B-1] | ≤ 10 | 10 to 100 |
| COc1nc(-c2cccc(-c3cccc(NC(=O)c4ccnn(C)c4=O)c3C)c2Cl)cnc1CN1CC(O)C1 [Compound C-86] | – | ≤ 10 |
| CCOC(=O)N(Cc1ncc(-c2cccc(-c3cccc(NC(=O)c4ccnn(C)c4=O)c3C)c2Cl)nc1OC)C[C@@H]1CCC(=O)N1 [Compound D-2] | 10 to 100 | > 5000 |
| CCOC(=O)[C@@H](O)CNCc1ccc(-c2cccc(-c3cccc(NC(=O)c4ccnn(C)c4=O)c3Cl)c2Cl)nc1OC [Compound G-1] | – | 10 to 100 |
| COc1nc(-c2cccc(-c3cccc(NC(=O)c4ccnn(C)c4=O)c3Cl)c2Cl)ccc1CN1CC(O)(C(=O)O)C1 [Compound C-41] | ≤ 10 | 10 to 100 |
| COc1nc(-c2cccc(-c3cccc(NC(=O)c4ccnn(C)c4=O)c3Cl)c2Cl)ccc1CNCC(C)(C)O [Compound C-5] | ≤ 10 | 10 to 100 |
| CCOC(=O)CCN(Cc1ccc(-c2cccc(-c3cccc(NC(=O)c4ccnn(C)c4=O)c3Cl)c2Cl)nc1OC)C(=O)OCc1oc(=O)oc1C [Compound F-1] | – | 100 to 1000 |
| COc1nc(-c2cccc(-c3cccc(NC(=O)c4ccnn(C)c4=O)c3Cl)c2Cl)ccc1CN[C@H]1CCC[C@H]1C(=O)O [Compound C-40] | ≤ 10 | 100 to 1000 |
| COc1nc(-c2cccc(-c3cccc(NC(=O)c4ccnn(C)c4=O)c3Cl)c2Cl)ccc1CNCCC(=O)O [Compound C-93] | – | 10 to 100 |
| COc1nc(-c2cccc(-c3cccc(NC(=O)c4ccnn(C)c4=O)c3Cl)c2Cl)c(F)cc1CN1CC(C(=O)O)C1 [Compound C-76] | ≤ 10 | 10 to 100 |
| CCOC(=O)C1CN(Cc2cnc(-c3cccc(-c4cccc(NC(=O)c5ccnn(C)c5=O)c4Cl)c3Cl)nc2OC)C1 [Compound C-79] | ≤ 10 | 10 to 100 |
| CCOC(=O)[C@H]1CCN(Cc2ccc(-c3cccc(-c4cccc(NC(=O)c5ccnn(C)c5=O)c4C)c3Cl)nc2OC)C1 [Compound C-55] | ≤ 10 | 10 to 100 |
| COc1nc(-c2cccc(-c3cccc(NC(=O)c4ccnn(C)c4=O)c3Cl)c2Cl)ccc1CN1CCN(C(=O)OC(C)(C)C)[C@H](C(=O)O)C1 [Compound C-23] | ≤ 10 | > 5000 |
| COC(=O)C1(F)CN(Cc2ccc(-c3cccc(-c4cccc(NC(=O)c5ccnn(C)c5=O)c4Cl)c3Cl)nc2OC)C1 [Compound C-18] | ≤ 10 | 10 to 100 |
| COc1nc(-c2cccc(-c3cccc(NC(=O)c4ccnn(C)c4=O)c3C)c2Cl)ccc1CN1CC[C@@H](C(=O)O)C1 [Compound C-58] | ≤ 10 | 10 to 100 |
| CCOC(=O)C1CN(Cc2c(C)cc(-c3cccc(-c4cccc(NC(=O)c5ccnn(C)c5=O)c4Cl)c3Cl)nc2OC)C1 [Compound C-89] | ≤ 10 | 10 to 100 |
| COc1nc(-c2cccc(-c3cccc(NC(=O)c4ccnn(C)c4=O)c3C)c2C)ccc1CNC(C)(C)CO [Compound C-73] | ≤ 10 | > 5000 |
| COc1nc(-c2cccc(-c3cccc(NC(=O)c4ccnn(C)c4=O)c3Cl)c2Cl)ccc1CN1CC[C@H](O)C1 [Compound C-50] | ≤ 10 | ≤ 10 |
| COc1cc(C(=O)Nc2cccc(-c3cccc(-c4ccc(CN[C@@H]5CCOC[C@@H]5O)c(OC)n4)c3Cl)c2Cl)c(=O)n(C)n1 [Compound C-92] | ≤ 10 | 10 to 100 |
| COc1nc(-c2cccc(-c3cccc(NC(=O)c4ccnn(C)c4=O)c3Cl)c2Cl)cnc1CN1CC2(CCC(=O)N2)C1 [Compound A-1] | ≤ 10 | 10 to 100 |
| COc1nc(-c2cccc(-c3cccc(NC(=O)c4ccnn(C)c4=O)c3Cl)c2Cl)ccc1CN1CC(OC)C1 [Compound C-8] | ≤ 10 | 10 to 100 |
| COc1nc(-c2cccc(-c3cccc(NC(=O)c4ccnn(C)c4=O)c3Cl)c2Cl)ccc1CN1CC(C(=O)NS(C)(=O)=O)C1 [Compound C-46] | – | 10 to 100 |
| COc1nc(-c2cccc(-c3cccc(NC(=O)c4ccnn(C)c4=O)c3Cl)c2Cl)ccc1CN[C@H](C(=O)O)C(C)C [Compound C-28] | ≤ 10 | 100 to 1000 |
| COc1nc(-c2cccc(-c3cccc(NC(=O)c4ccnn(C)c4=O)c3Cl)c2Cl)ccc1CN1CC[C@H](C(=O)O)C1 [Compound C-17] | ≤ 10 | 10 to 100 |
| COc1nc(-c2cccc(-c3cccc(NC(=O)c4ccnn(C)c4=O)c3Cl)c2Cl)ccc1CN1C(=O)O[C@H]2COCC[C@H]21 [Compound E-1] | ≤ 10 | > 10000 |

| Compound | IC50 (PDL1/PD1) [nM] | EC50 (PD-1/PD-L1 interaction) [nM] |
| --- | --- | --- |
| COc1nc(-c2cccc(-c3cccc(NC(=O)c4ccn[nH]c4=O)c3Cl)c2Cl)cnc1CN1CC2(CCC(=O)N2)C1 [Compound A-2] | ≤ 10 | 10 to 100 |
| CCOC(=O)[C@@H]1CCN(Cc2ccc(-c3cccc(-c4cccc(NC(=O)c5ccnn(C)c5=O)c4C)c3Cl)nc2OC)C1 [Compound C-57] | ≤ 10 | 10 to 100 |
| COc1nc(-c2cccc(-c3cccc(NC(=O)c4ccnn(C)c4=O)c3C)c2Cl)cnc1CN1CC[C@H](O)C1 [Compound C-87] | ≤ 10 | ≤ 10 |
| COc1nc(-c2cccc(-c3cccc(NC(=O)c4ccnn(C)c4=O)c3Cl)c2Cl)ncc1CN1CC(O)C1 [Compound C-82] | ≤ 10 | 10 to 100 |
| COc1nc(-c2cccc(-c3cccc(NC(=O)c4ccnn(C)c4=O)c3Cl)c2Cl)ccc1CN1CCO[C@@H](C(=O)O)C1 [Compound C-30] | ≤ 10 | 100 to 1000 |
| CCOC(=O)CCNCc1ccc(-c2cccc(-c3cccc(NC(=O)c4ccnn(C)c4=O)c3Cl)c2Cl)nc1OC [Compound C-94] | – | 10 to 100 |
| COc1nc(-c2cccc(-c3cccc(NC(=O)c4ccnn(C)c4=O)c3Cl)c2Cl)ccc1CNC[C@H](C)O [Compound C-3] | ≤ 10 | 10 to 100 |
| COC(=O)C1(F)CN(Cc2ccc(-c3cccc(-c4cccc(NC(=O)c5ccnn(C)c5=O)c4C)c3Cl)nc2OC)C1 [Compound C-61] | ≤ 10 | 10 to 100 |
| COc1nc(-c2cccc(-c3cccc(NC(=O)c4cc(C)n[nH]c4=O)c3Cl)c2Cl)cnc1CN1CC2(CCC(=O)N2)C1 [Compound A-4] | ≤ 10 | 100 to 1000 |
| CCOC(=O)[C@@H]1CCN(Cc2ccc(-c3cccc(-c4cccc(NC(=O)c5ccnn(C)c5=O)c4Cl)c3Cl)nc2OC)C1 [Compound C-14] | 10 to 100 | 10 to 100 |
| COc1nc(-c2cccc(-c3cccc(NC(=O)c4ccnn(C)c4=O)c3C)c2F)cc(C)c1CNC[C@@H]1CCC(=O)N1 [Compound B-4] | ≤ 10 | 10 to 100 |
| COc1nc(-c2cccc(-c3cccc(NC(=O)c4ccnn(C)c4=O)c3Cl)c2Cl)c(F)cc1CN[C@@H]1CCOC[C@@H]1O [Compound C-75] | ≤ 10 | ≤ 10 |
| COc1nc(-c2cccc(-c3cccc(NC(=O)c4ccnn(C)c4=O)c3C)c2Cl)ccc1CN1CC(C)(C(=O)O)C1 [Compound C-60] | ≤ 10 | 10 to 100 |
| COc1nc(-c2cccc(-c3cccc(NC(=O)c4ccnn(C)c4=O)c3Cl)c2Cl)cc(C)c1CN1CC(C(=O)O)C1 [Compound C-88] | ≤ 10 | 10 to 100 |
| COc1nc(-c2cccc(-c3cccc(NC(=O)c4ccnn(C)c4=O)c3Cl)c2Cl)cnc1CN1CC(O)C1 [Compound C-84] | – | 10 to 100 |
| COc1nc(-c2cccc(-c3cccc(NC(=O)c4ccnn(C)c4=O)c3Cl)c2Cl)cnc1CN[C@@H]1CCOC[C@@H]1O [Compound C-83] | – | 10 to 100 |
| COc1nc(-c2cccc(-c3cccc(NC(=O)c4ccnn(C)c4=O)c3C)c2C)ccc1CN[C@@H]1CCOC[C@@H]1O [Compound C-71] | – | ≤ 10 |
| COc1nc(-c2cccc(-c3cccc(NC(=O)c4ccnn(C)c4=O)c3Cl)c2Cl)cnc1CN1CC[C@H](O)C1 [Compound C-85] | – | ≤ 10 |
| CCOC(=O)[C@@H]1CN(Cc2ccc(-c3cccc(-c4cccc(NC(=O)c5ccnn(C)c5=O)c4Cl)c3Cl)nc2OC)C(=O)O1 [Compound H-1] | – | > 5000 |
| CCOC(=O)C1(C)CN(Cc2ccc(-c3cccc(-c4cccc(NC(=O)c5ccnn(C)c5=O)c4C)c3Cl)nc2OC)C1 [Compound C-59] | ≤ 10 | – |
| COc1nc(-c2cccc(-c3cccc(NC(=O)c4ccnn(C)c4=O)c3C)c2C)ccc1CN1C[C@@H](O)[C@@H]1C [Compound C-74] | – | > 5000 |
| COc1nc(-c2cccc(-c3cccc(NC(=O)c4ccnn(C)c4=O)c3C)c2Cl)ccc1CN[C@@H]1CCOC[C@@H]1O [Compound C-52] | – | > 5000 |
| COc1nc(-c2cccc(-c3cccc(NC(=O)c4ccnn(C)c4=O)c3C)c2Cl)ccc1CN1CC(F)(C(=O)O)C1 [Compound C-62] | – | 100 to 1000 |
| COc1nc(-c2cccc(-c3cccc(NC(=O)c4ccnn(C)c4=O)c3Cl)c2Cl)ccc1CN[C@@H]1CN(C(C)=O)C[C@@H]1O [Compound C-45] | – | 10 to 100 |
